Data from patent US5886190A, “Rapid synthesis and use of 18F-fluoromisonidazole and analogs” (priority 1997, dated 1999).
“And” between values parts separate entries of the source, which are not always exact repeats. Equal values may be shown once. Read-outs that look alike come from different tables or passages of the source.

Experiments:
[1] = test system: mammary tumor cells (13762 tumor cell line); conditions: for Tumor/blood count density ratio / Tumor/liver count density ratio / Tumor/muscle count density ratio / Blood, percent of injected dose/gram weight / Bone, percent of injected dose/gram weight / Kidney, percent of injected dose/gram weight / Liver, percent of injected dose/gram weight / Lung, percent of injected dose/gram weight / Muscle, percent of injected dose/gram weight / Spleen, percent of injected dose/gram weight / Tumor, percent of injected dose/gram weight: 10 μCi/rat iv, N = 3
Experimental: (§1) The synthesis scheme for [^18 F]FETNIM is depicted in FIG. 6. Biodistribution studies of [^18 F]FETNIM were performed at 1, 2 and 4 hours in mammary tumor-bearing rats (10 μCi, iv, N=3/time interval). Autoradiograms were performed at 1 hour postinjection of [^18 F]FETNIM, and a comparison has been made with [^18 F]fluoromisonidazole (FMISO). Intratumoral oxygen tension measurements were performed using the Eppendorf computerized histographic system. Twenty to twenty-five pO2 measurements along each of 2 to 3 linear tracks were performed at 0.4 mm intervals on each tumor. PET imaging studies of [^18 F]FETNIM were performed in rabbits bearing V2 tumors (N=3, 4 mCI, iv) which were located on the right leg.
Female Fischer 344 rats (250-275 g) (Harlan, Inc., Indianapolis, Ind.) were inoculated with mammary tumor cells in the lumbar area using a 13762 tumor cell line (s.c. 10^5 cells/rat). […] Three groups of rats (N=3/group) were anesthetized with ketamine (10-15 mg/rat). The ^18 F-FETNIM reconstituted in 5% ethanol/saline was given to rats (10 μCi/rat, iv) and tissue distribution was conducted at 1h, 2h and 4h intervals. The tissues were excised, weighed and counted for radioactivity. The percent of injected dose per gram of tissue weight was determined.

VX2 tumor = conditions: 4 mCi; 1 hour postinjection
Experimental: as §1
PET imaging was performed with a positron camera (Positron Corporation, Houston, Tex.). The tomograph has a field-of-view of 42 cm on transverse and 12 cm on coronal planes. The axial resolution on the reconstructed plane is 1.2 cm.
Three male New Zealand white rabbits each weighing 3 kg were inoculated at a single site in the right buttock area with a 0.5 ml suspension of minced VX2 tumor fragments (10^6 cells/rabbit). The tumors are maintained through serial animal passage and are available from the Department of Veterinary Medicine (The University of Texas M.D. Anderson Cancer Center, Houston, Tex.). […]

mammary tumor = assay: Autoradiographic studies in tumor-bearing rats; conditions: 1 hour postinjection
Experimental: as §1
Female Fischer 344 mammary tumor-bearing rats (n=3) after receiving [^18 F]FETNIM (2 mCi, iv) were sacrificed at 1 h. […] The rats were sacrificed at 1 hour postinjection. The rat body was fixed in a carboxymethyl cellulose (4%) block. The frozen body in a block was mounted to a cryostat (LKB 2250 cryo-microtome, Ijamsville, Md.) and 40 μm coronal sections were made. The section was freeze dried, then mounted on a x-ray film (X-Omat AR, Kodak, Rochester, N.Y.) for 24 hours.

[2] = Hydrophilicity (from autoradiogram and chemistry); assay type: physicochemical; conditions: relative to comparator named in value
hypoxic cells = assay: Selectivity to hypoxic cells (PET imaging, autoradiograms, biodistribution); conditions: in vivo
Experimental: as §1
PET imaging was performed with a positron camera (Positron Corporation, Houston, Tex.). The tomograph has a field-of-view of 42 cm on transverse and 12 cm on coronal planes. The axial resolution on the reconstructed plane is 1.2 cm. […]
Female Fischer 344 rats (250-275 g) (Harlan, Inc., Indianapolis, Ind.) were inoculated with mammary tumor cells in the lumbar area using a 13762 tumor cell line (s.c. 10^5 cells/rat). […] The tissues were excised, weighed and counted for radioactivity. The percent of injected dose per gram of tissue weight was determined.

[3] = 1 hour, listed as [^18 F] Fluoroerythronitroimidazole
[4] = 2 hour, listed as [^18 F] Fluoroerythronitroimidazole
[5] = 4 hour, listed as [^18 F] Fluoroerythronitroimidazole

Compound: O=[N+]([O-])c1nccn1C[C@H](O)[C@H](O)CF [[^18 F]FETNIM, [^18 F]fluoroerythro-2-nitroimidazole]
- Tumor/muscle, tumor/blood and tumor/liver count density ratios, change with time ([1]; 1, 2 and 4 h): showed increases with time
- Tumor/blood count density ratio ([1]; 1 hour): 2.29±0.599
- Tumor/liver count density ratio ([1]; 1 hour): 1.7600 ± 0.4415
- Tumor/muscle count density ratio ([1]; 1 hour): 0.66±0.267
- Tumor/blood count density ratio [1, 3]: 2.2900 ± 0.5994
- Tumor/muscle count density ratio [1, 3]: 0.6602 ± 0.2666
- Tumor/blood count density ratio ([1]; 2 hour): 2.41±0.567
- Tumor/liver count density ratio ([1]; 2 hour): 1.7700 ± 0.2561
- Tumor/muscle count density ratio ([1]; 2 hour): 2.11±0.347
- Tumor/blood count density ratio [1, 4]: 2.4100 ± 0.5672
- Tumor/muscle count density ratio [1, 4]: 2.1100 ± 0.3468
- Tumor/blood count density ratio ([1]; 4 hour): 8.0±2.42 and 8.02±2.420
- Tumor/liver count density ratio ([1]; 4 hour): 4.3300 ± 1.31
- Tumor/muscle count density ratio ([1]; 4 hour): 5.92±2.240
- Tumor/blood count density ratio [1, 5]: 8.0200 ± 2.42
- Tumor/muscle count density ratio [1, 5]: 5.9200 ± 2.24
- Blood, percent of injected dose/gram weight ([1]; 1 hour): 0.3493 ± 0.02173% of Injected Dose/Gram Weight
- Blood, percent of injected dose/gram weight ([1]; 2 hour): 0.1950 ± 0.02828% of Injected Dose/Gram Weight
- Blood, percent of injected dose/gram weight ([1]; 4 hour): 0.0993 ± 0.01266% of Injected Dose/Gram Weight
- Bone, percent of injected dose/gram weight ([1]; 1 hour): 0.2570 ± 0.14% of Injected Dose/Gram Weight
- Bone, percent of injected dose/gram weight ([1]; 2 hour): 0.0810 ± 0.00424% of Injected Dose/Gram Weight
- Bone, percent of injected dose/gram weight ([1]; 4 hour): 0.0753 ± 0.0157% of Injected Dose/Gram Weight
- Kidney, percent of injected dose/gram weight ([1]; 1 hour): 0.8860 ± 0.00424% of Injected Dose/Gram Weight
- Kidney, percent of injected dose/gram weight ([1]; 2 hour): 0.5145 ± 0.02334% of Injected Dose/Gram Weight
- Kidney, percent of injected dose/gram weight ([1]; 4 hour): 0.4663 ± 0.06866% of Injected Dose/Gram Weight
- Liver, percent of injected dose/gram weight ([1]; 1 hour): 0.4530 ± 0.01493% of Injected Dose/Gram Weight
- Liver, percent of injected dose/gram weight ([1]; 2 hour): 0.3123 ± 0.08225% of Injected Dose/Gram Weight
- Liver, percent of injected dose/gram weight ([1]; 4 hour): 0.1843 ± 0.02458% of Injected Dose/Gram Weight
- Lung, percent of injected dose/gram weight ([1]; 1 hour): 0.3577 ± 0.00723% of Injected Dose/Gram Weight
- Lung, percent of injected dose/gram weight ([1]; 2 hour): 0.2107 ± 0.05713% of Injected Dose/Gram Weight
- Lung, percent of injected dose/gram weight ([1]; 4 hour): 0.1027 ± 0.02122% of Injected Dose/Gram Weight
- Muscle, percent of injected dose/gram weight ([1]; 1 hour): 1.2600 ± 0.08627% of Injected Dose/Gram Weight
- Muscle, percent of injected dose/gram weight ([1]; 2 hour): 0.2670 ± 0.09036% of Injected Dose/Gram Weight
- Muscle, percent of injected dose/gram weight ([1]; 4 hour): 0.1377 ± 0.01893% of Injected Dose/Gram Weight
- Spleen, percent of injected dose/gram weight ([1]; 1 hour): 0.3183 ± 0.02011% of Injected Dose/Gram Weight
- Spleen, percent of injected dose/gram weight ([1]; 2 hour): 0.2013 ± 0.05918% of Injected Dose/Gram Weight
- Spleen, percent of injected dose/gram weight ([1]; 4 hour): 0.0953 ± 0.01401% of Injected Dose/Gram Weight
- Tumor, percent of injected dose/gram weight ([1]; 1 hour): 0.7957 ± 0.2036% of Injected Dose/Gram Weight
- Tumor, percent of injected dose/gram weight ([1]; 2 hour): 0.5516 ± 0.1582% of Injected Dose/Gram Weight
- Tumor, percent of injected dose/gram weight ([1]; 4 hour): 0.8113 ± 0.3377% of Injected Dose/Gram Weight
- SUV value of the tumor (VX2 tumor): greater than 10
- Tumor visualization by autoradiography (mammary tumor; 2 mCi iv): the tumor could be visualized 1 hour postinjection
- Uptake in the center region of the tumor (mammary tumor; 2 mCi iv): lack of uptake
- Uptake in intestines and colon (mammary tumor): high uptake
- Uptake in medullary of the kidney area (mammary tumor): higher uptake
- Differentiation of hypoxic versus necrotic regions in the tumor (mammary tumor; autoradiogram): could differentiate hypoxic versus necrotic regions in the tumor
- Hydrophilicity [2]: more hydrophilic than [^18 F]FMISO
- Hydrophilicity ([2]; listed as [^18 F]fluoroerythronitroimidazole): more hydrophilic than misonidazole
- Selectivity to hypoxic cells (hypoxic cells): selective to hypoxic cells
